US11661453B2 (Tesaro, Inc., priority 2017, dated 2023)

Tests used:
[1] = tested on: DLD1 BRCA2−/− cells; settings: 300 nM for 24 or 48 hours
Excerpt: (§1) The cells were subsequently analyzed for expression of Stimulator of Interferon Genes (STING) pathway proteins via Western blotting.

[2] = tested on: MDA-MB-436 cells
Excerpt: as §1

[3] = tested on: MMTV-LPA1 breast (LPA-T22); assay: Tumor growth inhibition, syngeneic MMTV-LPA1 breast model; assay type: in vivo, mouse; settings: niraparib orally once daily, antibody intraperitoneally twice weekly
Excerpt: (§2) A panel of 14 syngeneic or humanized xenograft models representing BRCA-proficient (wild-type) and BRCA-deficient (mutant) cancers derived from breast, lung, ovary, skin, sarcoma, bladder and colon tumors was established. The panel included the following genetically engineered mouse tumor models: 1) KrasG12D and PTEN null bladder (BL6078), 2) TP53 null sarcoma (SA9003), 3) MMTV-LPA1 breast (LPA-T22), 4) BRCA1 mutant breast (MDA-MB-436; also referred to as MM-436), 5) APC^Min heterozygous mutant skin (SK6005), and 6) BRCA1−/−, TP53−/−, KrasG12D ovarian (BRKras) models. While the bladder syngeneic model was BRCA1 wild-type, the sarcoma model harbored BRCA1 A122E and S123X heterozygous mutations. Specifically, mice were administered treatments after tumors reached 50-150 mm^3. […] The suboptimal dose administered for specific tumor models was as follows: 35 mg/kg daily for 5 consecutive days per week (QD×5/week) for the BR1126 tumor model, 35 mg/kg (QD×5/week) for the MDA-MB-436 tumor model, 30 mg/kg for the BRKras tumor model, and 25 mg/kg daily for the SK6005 tumor model. The anti-PD-1 antibody (RMP1-14/2C4) or the anti-PD-L1 antibody (10F.9G2) was administered twice weekly intraperitoneally at 10 mg/kg dose unless otherwise noted. […] Tumor growth was monitored twice per week.

[4] = tested on: TP53 null sarcoma (SA9003); assay: Tumor growth inhibition, TP53 null sarcoma model; assay type: in vivo, mouse; settings: niraparib orally once daily, antibody intraperitoneally twice weekly
Excerpt: as §2

[5] = tested on: KrasG12D and PTEN null bladder (BL6078); assay: Tumor growth inhibition, Kras G12D and PTEN null bladder model; settings: mouse, in vivo
Excerpt: as §2

[6] = tested on: PARP activity; settings: PARP activity stimulated by DNA damage caused by hydrogen peroxide, various cell lines, cited from earlier work
[7] = tested on: cancer cell lines that have been silenced for BRCA-1 or BRCA-2, or carry BRCA-1 or BRCA-2 mutations; settings: cited from earlier work
[8] = tested on: selected Ewing's sarcoma, ALL, NSCLC and SCLC cell lines, tumor cell lines carrying homozygous inactivation of the ATM gene; settings: cited from earlier work
[9] = tested on: normal human cells; settings: cited from earlier work
[10] = tested on: MDA-MB-436, CAPAN-1, GRANTA-519, OVCAR3, HT29, DLD-1, patient derived Ewing's sarcoma and TNBC xenograft models; settings: xenograft models in mice; cited from earlier work
[11] = tested on: non-small-cell lung cancer, melanoma, and renal-cell cancer; settings: Phase I clinical trial; cited from earlier work

Compound	mRNA expression of type-I interferon (IFNB1 or IFNA1) [1]	mRNA expression of type-I interferon (IFNB1) ([2]; 300 nM for 24 or 48 hours)	expression of STING pathway proteins (p-STING, STING, p-TBK1, TBK1, p-NF-κB p65, NF-κB p65) ([2]; 1 μM for 48 hours, Western blotting)	tumor growth inhibition (TGI) [3] [%]	tumor growth inhibition (TGI) [4] [%]	response to monotherapy [5]	IC50 ([6]; read-out: IC50 of PARP activity in cell lines) [nM]	IC90 ([6]; read-out: inhibitory concentration at 90% of control (IC90) of PARP activity in cell lines) [nM]	consequence on cell cycle ([7]; BRCA-defective cells)	anti-proliferative activity ([7]; compared to wild type counterparts)	cytotoxicity [8]	activity on normal human cells [9]	antitumor activity in vivo [10]	clinical response [11]
NC(=O)c1cccc2cn(-c3ccc([C@@H]4CCCNC4)cc3)nc12 [Niraparib, (3 S)-3-[4-{7-(aminocarbonyl)-2H-indazol-2-yl}phenyl]piperidine]	detected	detected	expression of STING pathway proteins	45	1	neither responsive	~4	~50	cell cycle arrest in G2/M followed by apoptosis	selective anti-proliferative activity	selectively cytotoxic	weak activity	strong antitumor activity	
nivolumab: anti-PD-1 monoclonal antibody (Human IgG4)														complete or partial responses
